Counter-ions that a name gives are not always drawn.
Assays:
[1] = tested on: Spinal Nerve Ligation (SNL) model; experiment: Spinal Nerve Ligation (SNL) model, mechanical pain threshold by Von Frey filaments; format: in vivo; conditions: rat, oral administration (i.g.), 100 mg/kg, mechanical pain threshold ipsilateral hind paw
Source text: It is a type of chronic pain characterized by features such as spontaneous pain, hyperalgesia, abnormal pain, and sensory disturbances. Following nerve damage, neuropathic pain can persist, and its characteristics include hypersensitive responses to stimuli […], the presence of abnormal sensations (allodynia), and painful responses to non-harmful stimuli […]. The Spinal Nerve Ligation (SNL) model involves the tight ligation of the L5 and L6 spinal nerves using sutures.
In this experiment, pregabalin at a dose of 100 mg/kg was used as a positive control to compare the analgesic effect of the test compound. After administration, the mechanical pain threshold in the ipsilateral hind paw of the rat was tested using Von Frey filaments. The change in mechanical pain threshold before and after administration was used to determine whether the test compound at 100 mg/kg has a neuropathic pain-relieving effect in the SNL model.

Sigma-1 receptor = Sigma-1 receptor (Cavia porcellus (Guinea pig), UniProt Q60492); experiment: Sigma-1 receptor binding affinity test ([3H]-(+)-pentazocine displacement, guinea pig cerebral cortex membranes); conditions: [3H]-(+)-pentazocine 10 nM, 25° C., 180 minutes; read-out: Sigma1R Ki
Protocol: Guinea pigs (provided by Beijing Vital River Laboratory Animal Technology Co., Ltd.) were decapitated, and the operations were carried out on ice. The cerebral cortex was quickly harvested and pooled into a centrifuge tube. A suitable amount of buffer (0.05M Tris-HCl with 0.32M sucrose) was added to the tube, and the tissue was homogenized using a homogenizer (IKA, Ultra Turrax T25 Digital) at setting 4 for 3˜4 seconds, repeated four times. After homogenization, solution B was added to adjust the volume to 10 mL/g. The weight of the centrifuge tubes was balanced, and then they were centrifuged at 1000 g for 10 minutes using a high-speed refrigerated centrifuge. The supernatant was collected and adjusted to 2 mL/g with solution B, followed by centrifugation at 1000 g and 4° C. for 10 minutes. The supernatant was then centrifuged at 18000 rpm and 4° C. for 25 minutes. The pellet was resuspended in solution B to a final volume of 3 mL/g and incubated in a water bath at 25° C. for 15 minutes. After incubation, the suspension was centrifuged at 18000 rpm and 4° C. for 45 minutes. The pellet was stored at −80° C. for future use.
An appropriate amount of homogenization buffer was added to the prepared membrane, and was dispersed into a suspension using a homogenizer, protein concentration was measured to be 4 mg/ml. 100 micrograms of protein were added to each well of a 96-well plate, with a volume of 90 μl. […] [3H]-(+)-pentazocine (Perkin-Elmer, Cat #NET1056250UC) was added to each well (final concentration of 10 nM). The 96-well plate was incubated in a constant temperature water bath (25° C., 180 minutes). […] After washing, the samples were dried in a 37° C. oven.

[2] = tested on: motor balance ability of rats; experiment: Rat rotarod test (motor balance ability); format: in vivo; conditions: 15 rpm
Protocol: Placing rats on a continuously rotating rod causes them to move immediately in the opposite direction of the rod's motion. […] During the formal experiment, the time the rats stay on the rotarod is used as an indicator to measure their motor balance ability. This experiment aims to explore the impact of compound 37 at doses ranging from 10 to 300 mg/kg on the motor balance ability of rats in the rotarod test.
After administration of the test substance to the rats, they are placed on the rotarod fatigue tester, and the average time spent on the rod after three tests is recorded and analyzed.
Calculate the Maximum Possible Effect on Motor Balance Ability %: Maximum Possible Effect on Motor Balance Ability %=(1−test group/vehicle)×100%
Note: The motor balance ability of the vehicle group is considered as 0%, and the Maximum Possible Effect on Motor Balance Ability % for each group is calculated based on this standard.

Sigma-1 receptor, sequence (Q60492 whole entry): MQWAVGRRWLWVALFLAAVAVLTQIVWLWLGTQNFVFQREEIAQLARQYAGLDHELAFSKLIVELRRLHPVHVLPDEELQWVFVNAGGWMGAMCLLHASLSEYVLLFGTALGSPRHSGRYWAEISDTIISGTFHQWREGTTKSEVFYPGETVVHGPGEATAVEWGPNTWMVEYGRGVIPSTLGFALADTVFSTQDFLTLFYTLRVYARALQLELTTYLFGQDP

## CC(C)C[C@H](CN)CC(=O)O [Pregabalin, pregabalin]
[1]
  analgesic activity in the SNL model: some analgesic activity

## O[C@@H]1CCN(Cc2cc(-c3ccc(Cl)c(Cl)c3)no2)C1 [Compound 43]
Sigma-1 receptor
  Ki: 7.97 nM

## O[C@H]1CCN(Cc2cc(-c3ccc(F)c(F)c3)no2)C1 [Compound 38]
Sigma-1 receptor
  Ki: 378 nM

## OCCC1CCN(Cc2cc(-c3ccc(Cl)c(Cl)c3)no2)CC1 [Compound 47]
Sigma-1 receptor
  Ki: 0.74 nM

## OC1CCN(Cc2cc(-c3ccc(F)c(F)c3)no2)CC1 [Compound 37]
[2]; oral 15 minutes prior, 10-300 mg/kg
  change in the time spent on the rotarod compared to the vehicle: no significant change
[2]; oral 15 minutes prior, first of four doses in 10-300 mg/kg
  Maximum Possible Effect on Motor Balance Ability: −6%
[2]; oral 15 minutes prior, fourth of four doses in 10-300 mg/kg
  Maximum Possible Effect on Motor Balance Ability: −6%
[2]; oral 15 minutes prior, second of four doses in 10-300 mg/kg
  Maximum Possible Effect on Motor Balance Ability: 11%
[2]; oral 15 minutes prior, third of four doses in 10-300 mg/kg
  Maximum Possible Effect on Motor Balance Ability: −6%

## Fc1ccc(-c2cc(CN3CC[Se]CC3)on2)cc1F [Compound 20]
Sigma-1 receptor
  Ki: 48.9 nM

## O=C1CCN(Cc2cc(-c3ccc(F)c(F)c3)no2)CC1 [Compound 88]
Sigma-1 receptor
  Ki: 959 nM

## OC[C@@H]1CCCN1Cc1cc(-c2ccc(F)c(F)c2)no1 [Compound 41]
Sigma-1 receptor
  Ki: 34 nM

## CC1COCC(C)N1CCOCc1cc(-c2ccc(Cl)c(Cl)c2)no1 (centres unmarked) [Compound 77]
Sigma-1 receptor
  Ki: 14.9 nM

## Fc1ccc(-c2cc(CN3CCOCC3)on2)cc1F [Compound 19]
Sigma-1 receptor
  Ki: 172 nM

## Cc1cccc([C@H](C)c2cnc[nH]2)c1C [dexmedetomidine hydrochloride injection, dexmedetomidine hydrochloride, reference compound]
[2]; subcutaneous injection 30 μg/kg, 15 minutes prior, vs vehicle
  Maximum Possible Effect on Motor Balance Ability: 62%

## OC[C@H]1CCCN1Cc1cc(-c2ccc(F)c(F)c2)no1 [Compound 40]
Sigma-1 receptor
  Ki: 190 nM

## OC[C@H]1CCCN1Cc1cc(-c2ccc(Cl)c(Cl)c2)no1 [Compound 44]
Sigma-1 receptor
  Ki: 19 nM

Reference: patent publication US20240317745A1, “SIGMA-1 RECEPTOR ANTAGONISTS AND THEIR APPLICATIONS” (Humanwell Pharmaceutical US, Inc., priority 2023, published 2024)
